Results taken from paper PMC12518639, “Apomorphine is a novel necroptosis inhibitor targeting mixed lineage kinase domain-like protein oligomerization” (Cell Death Discovery, 2025).

Experiments:
Wt-hMLKL = target: T1, Wt-hMLKL (Homo sapiens, UniProt Q8NB16); experiment: SPR competition assay of NSA with Ox-APO; format: binding; conditions: 200 μM NSA, 750 μM Ox-APO
T1 construct: purchased Abcam ab241453
T1 sequence (Q8NB16 1-471): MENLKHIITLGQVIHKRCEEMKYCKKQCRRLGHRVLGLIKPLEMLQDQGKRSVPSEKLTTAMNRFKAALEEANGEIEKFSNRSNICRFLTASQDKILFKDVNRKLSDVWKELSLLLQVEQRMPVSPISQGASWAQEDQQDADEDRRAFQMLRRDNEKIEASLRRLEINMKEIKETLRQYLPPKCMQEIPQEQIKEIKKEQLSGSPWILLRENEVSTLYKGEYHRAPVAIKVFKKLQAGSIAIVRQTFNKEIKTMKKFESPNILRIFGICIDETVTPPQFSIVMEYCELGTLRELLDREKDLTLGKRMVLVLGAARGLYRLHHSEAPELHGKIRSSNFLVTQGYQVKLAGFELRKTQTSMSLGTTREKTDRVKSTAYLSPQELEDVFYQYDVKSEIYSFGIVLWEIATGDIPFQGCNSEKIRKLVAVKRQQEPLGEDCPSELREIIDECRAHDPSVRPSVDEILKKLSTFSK
Description: Fig. S4 Competition assay of NSA with Ox-APO by SPR. Wt-hMLKL was immobilized on a CM5 chip and 750 μM Ox-APO was overflowed in the presence or absence of 200 μM NSA.

mouse MLKL = system: mouse MLKL; set-up: method as in PMID 28827318; conditions: cited from earlier work

competition for binding to hMLKL (Wt-hMLKL): competed with Ox-APO
Structure (SMILES): COc1nccnc1NS(=O)(=O)c1ccc(NC(=O)/C=C/c2ccc([N+](=O)[O-])s2)cc1 [NSA, Necrosulfonamide]
activity against mouse MLKL (mouse MLKL): ineffective
